From publication PMC8694143 (Microbiology Spectrum, 2021)

How the values were obtained:
Assay in all cases: MIC determination in broth
Type in all cases: cell-based, Staphylococcus aureus
MRSA ATCC BAA-2313 = conditions: STIP3 variants, highest conc. tested 100 μg/mL; cation-adjusted MH broth, ~10^5 CFU/mL, 2-fold dilution series, 37°C, 16 h
Method: (§1) M. luteus ATCC 4698, S. aureus ATCC 29213, a panel of 7 MRSA (ATCC MP-2) strains, which includes ATCC BAA-41, BAA-42, BAA-44, BAA-1683, BAA-2094, BAA-2313, and 33592, and a series of additional bacterial isolates from human and veterinary cases were used in this study (Table S6). Bacterial strains were routinely grown in lysogeny broth (LB: 10 g/L tryptone, 5 g/L yeast extract, 10 g/L NaCl) at 30°C (M. luteus) or 37°C (Staphylococcus spp.) prior to use in specific experiments described below.
(§2) The MICs were measured for bioactive peptides identified from the initial screen. Cation-adjusted Mueller-Hinton (MH) broth was used as the growth medium for MIC determination experiments. Bacterial cultures were diluted to an OD of 5 × 10^−4 (∼10^5 CFU/mL) in 200 μL MH broth mixed with peptides in a 2-fold dilution series arrayed in 96-well plates. Plates were incubated without shaking at 30 or 37°C depending on the organism.

MRSA ATCC BAA-42 = conditions: STIP3 variants, highest conc. tested 100 μg/mL; cation-adjusted MH broth, ~10^5 CFU/mL, 2-fold dilution series, 37°C, 16 h
Method: as §1, §2

S. aureus ATCC 29213 = conditions: STIP3 variants, highest conc. tested 100 μg/mL; cation-adjusted MH broth, ~10^5 CFU/mL, 2-fold dilution series, 37°C, 16 h
Method: as §1, §2

MRSA ATCC BAA-41 = conditions: STIP3 variants, highest conc. tested 100 μg/mL; cation-adjusted MH broth, ~10^5 CFU/mL, 2-fold dilution series, 37°C, 16 h
Method: as §1, §2

MRSA ATCC BAA-2094 = conditions: STIP3 variants, highest conc. tested 100 μg/mL; cation-adjusted MH broth, ~10^5 CFU/mL, 2-fold dilution series, 37°C, 16 h
Method: as §1, §2

MRSA ATCC 33592 = conditions: Table S5; STIP3 variants, highest conc. tested 100 μg/mL; cation-adjusted MH broth, ~10^5 CFU/mL, 2-fold dilution series, 37°C, 16 h
Method: as §1, §2

MRSA ATCC BAA-44 = conditions: STIP3 variants, highest conc. tested 100 μg/mL; cation-adjusted MH broth, ~10^5 CFU/mL, 2-fold dilution series, 37°C, 16 h
Method: as §1, §2

MRSA ATCC BAA-1683 = conditions: STIP3 variants, highest conc. tested 100 μg/mL; cation-adjusted MH broth, ~10^5 CFU/mL, 2-fold dilution series, 37°C, 16 h
Method: as §1, §2

Substance | MIC, S. aureus ATCC BAA 2313 (SCCmec XI) (MRSA ATCC BAA-2313) | MIC, S. aureus ATCC BAA 42 (SCCmec VI) (MRSA ATCC BAA-42) | MIC, S. aureus ATCC 29213 (S. aureus ATCC 29213) | MIC, S. aureus ATCC BAA 41 (SCCmec II) (MRSA ATCC BAA-41) | MIC, S. aureus ATCC BAA 2094 (SCCmec V) (MRSA ATCC BAA-2094) | MIC, S. aureus ATCC 33592 (SCCmec III) (MRSA ATCC 33592) | MIC, S. aureus ATCC BAA 44 (SCCmec I) (MRSA ATCC BAA-44) | MIC, S. aureus ATCC BAA 1683 (SCCmec IV) (MRSA ATCC BAA-1683)
TVGGLVKWILKAVKKFA [STIP3-13, rationally designed STIP3-1 variant] | 25 µg/mL | 25 µg/mL | 25 µg/mL | 12.5 µg/mL | 25 µg/mL | 25 µg/mL | 25 µg/mL | 25 µg/mL
TVGGLVKWILKTVKKFA [STIP3-3, rationally designed STIP3-1 variant] | 50 µg/mL | 50 µg/mL | 25 µg/mL | 25 µg/mL | 25 µg/mL | 25 µg/mL | 25 µg/mL | 50 µg/mL
TVGGLVKWILNTVKKFA [STIP3-4, rationally designed STIP3-1 variant] | 100 µg/mL | 50 µg/mL | 100 µg/mL | 50 µg/mL | 50 µg/mL | 50 µg/mL | 50 µg/mL | 100 µg/mL
TVGVLVKWILNVVAKFA [STIP3-24, rationally designed STIP3-1 variant] | > (The > symbol indicates that no inhibition was observed at 100 μg/mL for the STIP3 variants) | > (The > symbol indicates that no inhibition was observed at 100 μg/mL for the STIP3 variants) | > (The > symbol indicates that no inhibition was observed at 100 μg/mL for the STIP3 variants) | > (The > symbol indicates that no inhibition was observed at 100 μg/mL for the STIP3 variants) | > (The > symbol indicates that no inhibition was observed at 100 μg/mL for the STIP3 variants) | > (The > symbol indicates that no inhibition was observed at 100 μg/mL for the STIP3 variants) | > (The > symbol indicates that no inhibition was observed at 100 μg/mL for the STIP3 variants) | > (The > symbol indicates that no inhibition was observed at 100 μg/mL for the STIP3 variants)
TVKALVKWILKTVAKFA [STIP3-19, rationally designed STIP3-1 variant] | 25 µg/mL | 50 µg/mL | 50 µg/mL | 50 µg/mL | 25 µg/mL | 25 µg/mL | 25 µg/mL | 25 µg/mL
TVKALVKWILKTVAKFW [STIP3-21, rationally designed STIP3-1 variant] | 12.5 µg/mL | 25 µg/mL | 25 µg/mL | 25 µg/mL | 12.5 µg/mL | 25 µg/mL | 25 µg/mL | 12.5 µg/mL
TVKALVKWILKTVAKFW-NH2 [STIP3-31, rationally designed STIP3-1 variant, C-terminal amide] | 25 µg/mL | 50 µg/mL | 25 µg/mL | 25 µg/mL | 25 µg/mL | 25 µg/mL | 25 µg/mL | 25 µg/mL
TVKFLVKWILKWVAKFA [STIP3-25, rationally designed STIP3-1 variant] | > (The > symbol indicates that no inhibition was observed at 100 μg/mL for the STIP3 variants) | > (The > symbol indicates that no inhibition was observed at 100 μg/mL for the STIP3 variants) | > (The > symbol indicates that no inhibition was observed at 100 μg/mL for the STIP3 variants) | > (The > symbol indicates that no inhibition was observed at 100 μg/mL for the STIP3 variants) | > (The > symbol indicates that no inhibition was observed at 100 μg/mL for the STIP3 variants) | > (The > symbol indicates that no inhibition was observed at 100 μg/mL for the STIP3 variants) | > (The > symbol indicates that no inhibition was observed at 100 μg/mL for the STIP3 variants) | > (The > symbol indicates that no inhibition was observed at 100 μg/mL for the STIP3 variants)
TVKGLVKWILATVKKFA [STIP3-16, rationally designed STIP3-1 variant] | 100 µg/mL | 50 µg/mL | 100 µg/mL | 50 µg/mL | 100 µg/mL | 50 µg/mL | 100 µg/mL | > (The > symbol indicates that no inhibition was observed at 100 μg/mL for the STIP3 variants)
TVKGLVKWILNVVKKFA [STIP3-14, rationally designed STIP3-1 variant] | 12.5 µg/mL | 25 µg/mL | 25 µg/mL | 25 µg/mL | 50 µg/mL | 12.5 µg/mL | 25 µg/mL | 25 µg/mL
TVKGLVKWILNVVKKFA-NH2 [STIP3-30, rationally designed STIP3-1 variant, C-terminal amide] | 25 µg/mL | 25 µg/mL | 12.5 µg/mL | 25 µg/mL | 25 µg/mL | 12.5 µg/mL | 12.5 µg/mL | 12.5 µg/mL
TVKKLVKWILKTVKKFA [STIP3-18, rationally designed STIP3-1 variant] | > (The > symbol indicates that no inhibition was observed at 100 μg/mL for the STIP3 variants) | > (The > symbol indicates that no inhibition was observed at 100 μg/mL for the STIP3 variants) | 100 µg/mL | 100 µg/mL | 100 µg/mL | 100 µg/mL | 100 µg/mL | > (The > symbol indicates that no inhibition was observed at 100 μg/mL for the STIP3 variants)
